Experimental data: article PMC9516332 (Frontiers in Oncology, 2022)
Like-named read-outs stand apart in the source and are kept apart here.

Legend:
Test in all cases: Kinase panel profiling at 1 µmol/L (MSA or IMAP), percentage inhibition
Format in all cases: biochemical
[1] = biological target: panel of 255 wild-type kinases (Homo sapiens, UniProt O96013); conditions: PAK4; 1 µmol/L single concentration; read-out: %-inhibition, PAK4
[2] = biological target: panel of 255 wild-type kinases (Homo sapiens, UniProt P16591); conditions: kinase FER; 1 µmol/L single concentration; read-out: %-inhibition at 1 µmol/L, FER
[3] = biological target: panel of 255 wild-type kinases (Homo sapiens, UniProt P35968); conditions: read-out: %-inhibition at 1 µmol/L, KDR
[4] = biological target: T1, panel of 255 wild-type kinases (Homo sapiens, UniProt P42680); conditions: kinase TEC; 1 µmol/L single concentration; read-out: %-inhibition at 1 µmol/L, TEC
T1 sequence (P42680 1-631): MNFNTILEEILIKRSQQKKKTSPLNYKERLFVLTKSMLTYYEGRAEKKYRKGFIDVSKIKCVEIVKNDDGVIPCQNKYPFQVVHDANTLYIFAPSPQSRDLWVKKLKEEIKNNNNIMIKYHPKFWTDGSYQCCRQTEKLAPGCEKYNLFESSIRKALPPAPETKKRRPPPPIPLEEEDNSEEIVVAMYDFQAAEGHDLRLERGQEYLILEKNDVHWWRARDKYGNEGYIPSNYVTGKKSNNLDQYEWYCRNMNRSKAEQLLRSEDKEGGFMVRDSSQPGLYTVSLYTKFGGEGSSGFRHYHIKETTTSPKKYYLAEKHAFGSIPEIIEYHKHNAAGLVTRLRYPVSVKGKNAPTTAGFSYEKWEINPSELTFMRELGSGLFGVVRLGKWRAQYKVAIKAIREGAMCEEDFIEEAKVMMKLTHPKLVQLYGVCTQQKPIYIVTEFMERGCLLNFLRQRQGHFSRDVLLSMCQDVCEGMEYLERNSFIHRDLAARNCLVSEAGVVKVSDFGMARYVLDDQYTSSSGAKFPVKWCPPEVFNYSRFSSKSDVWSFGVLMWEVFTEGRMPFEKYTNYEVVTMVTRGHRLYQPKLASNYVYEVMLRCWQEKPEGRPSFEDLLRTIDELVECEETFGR

[5] = biological target: T2, panel of 255 wild-type kinases (Homo sapiens, UniProt P51955); conditions: NEK2; 1 µmol/L single concentration; read-out: %-inhibition, NEK2
T2 sequence (P51955 1-445): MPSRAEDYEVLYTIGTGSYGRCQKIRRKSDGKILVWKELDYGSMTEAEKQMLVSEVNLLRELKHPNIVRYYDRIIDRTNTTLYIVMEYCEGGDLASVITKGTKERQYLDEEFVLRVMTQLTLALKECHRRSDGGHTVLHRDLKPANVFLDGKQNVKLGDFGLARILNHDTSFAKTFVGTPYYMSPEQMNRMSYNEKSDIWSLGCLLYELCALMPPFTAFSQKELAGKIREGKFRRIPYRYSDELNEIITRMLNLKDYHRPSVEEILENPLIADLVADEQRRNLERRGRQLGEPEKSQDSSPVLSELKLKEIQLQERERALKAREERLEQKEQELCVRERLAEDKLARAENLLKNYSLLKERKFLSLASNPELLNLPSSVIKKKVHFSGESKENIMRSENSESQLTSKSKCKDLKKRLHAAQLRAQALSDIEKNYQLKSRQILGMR

[6] = biological target: panel of 255 wild-type kinases (Homo sapiens, UniProt Q00526); conditions: CDK3/CycE1 kinase assay; 1 µmol/L single concentration; read-out: %-inhibition CDK3/CycE1
[7] = biological target: panel of 255 wild-type kinases (Homo sapiens, UniProt Q13555); conditions: CaMK2γ kinase assay; 1 µmol/L single concentration; read-out: %-inhibition CaMK2γ
[8] = biological target: panel of 255 wild-type kinases (Homo sapiens, UniProt Q14680); conditions: MELK; 1 µmol/L single concentration; read-out: %-inhibition, MELK
[9] = biological target: panel of 255 wild-type kinases (Homo sapiens, UniProt Q16816); conditions: kinase PHKG1; 1 µmol/L single concentration; read-out: %-inhibition at 1 µmol/L, PHKG1
[10] = biological target: panel of 255 wild-type kinases (Homo sapiens, UniProt Q8N568); conditions: kinase DCAMKL2; 1 µmol/L single concentration; read-out: %-inhibition at 1 µmol/L, DCAMKL2
[11] = biological target: panel of 255 wild-type kinases (Homo sapiens, UniProt Q9BYP7); conditions: kinase WNK3; 1 µmol/L single concentration; read-out: %-inhibition at 1 µmol/L, WNK3
[12] = biological target: T3, panel of 255 wild-type kinases (Homo sapiens, UniProt Q9HBY8); conditions: kinase SGK2; 1 µmol/L single concentration; read-out: %-inhibition at 1 µmol/L, SGK2
T3 sequence (Q9HBY8 1-367): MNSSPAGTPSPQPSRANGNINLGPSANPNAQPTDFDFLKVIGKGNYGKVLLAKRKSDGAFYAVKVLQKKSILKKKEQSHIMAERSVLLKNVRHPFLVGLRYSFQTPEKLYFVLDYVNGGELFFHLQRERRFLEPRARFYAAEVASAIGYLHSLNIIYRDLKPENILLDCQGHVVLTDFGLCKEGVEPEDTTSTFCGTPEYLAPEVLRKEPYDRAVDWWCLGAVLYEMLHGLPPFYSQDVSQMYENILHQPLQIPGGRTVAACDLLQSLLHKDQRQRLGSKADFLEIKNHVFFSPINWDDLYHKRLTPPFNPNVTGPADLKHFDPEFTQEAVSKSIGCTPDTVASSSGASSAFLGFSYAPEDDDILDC

[13] = biological target: panel of 255 wild-type kinases (Homo sapiens, UniProt Q9HC98); conditions: NEK6; 1 µmol/L single concentration; read-out: %-inhibition, NEK6
[14] = biological target: panel of 255 wild-type kinases (Homo sapiens, UniProt Q9P289); conditions: MST4; 1 µmol/L single concentration; read-out: %-inhibition, MST4
[15] = biological target: panel of 255 wild-type kinases (Homo sapiens, UniProt Q9UK32); conditions: kinase RSK4; 1 µmol/L single concentration; read-out: %-inhibition at 1 µmol/L, RSK4
[16] = kinase KDR, 1 µmol/L single concentration

SMILES: CCc1nc(C(N)=O)c(Nc2ccc(N3CCC(N4CCN(C)CC4)CC3)c(OC)c2)nc1NC1CCOCC1 [gilteritinib]
- inhibition at 1 µM [1]: 74%
- inhibition at 1 µM [2]: 99%
- inhibition at 1 µM [3, 16]: 104%
- inhibition at 1 µM [4]: 44%
- inhibition at 1 µM [5]: 38%
- inhibition at 1 µM [6]: 7%
- inhibition at 1 µM [7]: 62%
- inhibition at 1 µM [8]: 75%
- inhibition at 1 µM [9]: 92%
- inhibition at 1 µM [10]: 11%
- inhibition at 1 µM [11]: 5%
- inhibition at 1 µM [12]: -3.51%
- inhibition at 1 µM [13]: -2%
- inhibition at 1 µM [14]: 4.67%
- inhibition at 1 µM [15]: 44%

SMILES: CCN1CCN(c2ccc(Nc3cc(N(C)C(=O)Nc4c(Cl)c(OC)cc(OC)c4Cl)ncn3)cc2)CC1 [infigratinib]
- inhibition at 1 µM [1]: 6%
- inhibition at 1 µM [2]: 9.48%
- inhibition at 1 µM [3, 16]: 92%
- inhibition at 1 µM [4]: 7%
- inhibition at 1 µM [5]: 27%
- inhibition at 1 µM [6]: -10%
- inhibition at 1 µM [7]: -3.37%
- inhibition at 1 µM [8]: -2%
- inhibition at 1 µM [9]: 0.355%
- inhibition at 1 µM [10]: 4.25%
- inhibition at 1 µM [11]: 1.62%
- inhibition at 1 µM [12]: -8%
- inhibition at 1 µM [13]: -2.62%
- inhibition at 1 µM [14]: -10%
- inhibition at 1 µM [15]: 7%

SMILES: O=C(Nc1cnn2ccc(N3CCC[C@@H]3c3cc(F)ccc3F)nc12)N1CC[C@H](O)C1 [larotrectinib]
- inhibition at 1 µM [1]: -4.61%
- inhibition at 1 µM [2]: 3.72%
- inhibition at 1 µM [3, 16]: 6%
- inhibition at 1 µM [4]: 1.59%
- inhibition at 1 µM [5]: -0.367%
- inhibition at 1 µM [6]: 1.79%
- inhibition at 1 µM [7]: -0.126%
- inhibition at 1 µM [8]: -1.52%
- inhibition at 1 µM [9]: 1.81%
- inhibition at 1 µM [10]: 0.701%
- inhibition at 1 µM [11]: -0.6%
- inhibition at 1 µM [12]: -4%
- inhibition at 1 µM [13]: 0.246%
- inhibition at 1 µM [14]: 1.67%
- inhibition at 1 µM [15]: -7%

SMILES: CCN1C(=O)N(c2c(F)c(OC)cc(OC)c2F)Cc2cnc3[nH]c(CN4CCOCC4)cc3c21 [pemigatinib]
- inhibition at 1 µM [1]: -1.88%
- inhibition at 1 µM [2]: -3%
- inhibition at 1 µM [3]: 96%
- inhibition at 1 µM [4]: -1.55%
- inhibition at 1 µM [5]: -2%
- inhibition at 1 µM [6]: 11%
- inhibition at 1 µM [7]: 5%
- inhibition at 1 µM [8]: 0.738%
- inhibition at 1 µM [9]: 6%
- inhibition at 1 µM [10]: 27%
- inhibition at 1 µM [11]: -0.586%
- inhibition at 1 µM [12]: 8%
- inhibition at 1 µM [13]: -2.6%
- inhibition at 1 µM [14]: 56%
- inhibition at 1 µM [15]: -7%

SMILES: FC(F)(F)c1ccc(CNc2ccc(Cc3c[nH]c4ncc(Cl)cc34)cn2)cn1 [pexidartinib]
- inhibition at 1 µM [1]: 11%
- inhibition at 1 µM [2]: 21%
- inhibition at 1 µM [3, 16]: 81%
- inhibition at 1 µM [4]: -0.0585%
- inhibition at 1 µM [5]: -0.918%
- inhibition at 1 µM [6]: -1.23%
- inhibition at 1 µM [7]: 0.769%
- inhibition at 1 µM [8]: 3%
- inhibition at 1 µM [9]: 21%
- inhibition at 1 µM [10]: 3.25%
- inhibition at 1 µM [11]: 0.624%
- inhibition at 1 µM [12]: 8%
- inhibition at 1 µM [13]: -0.796%
- inhibition at 1 µM [14]: 7%
- inhibition at 1 µM [15]: 24%
